Legend:
Staphylococcus aureus = test: Anti-biofilm effect on in vitro preformed 24-hour biofilm (CLSM, COMSTAT); format: cell-based; design: key: ↓: 20-30% decrease; ↓↓: 31-50% decrease; ↓↓↓: >51% decrease; ↔: No change; conditions: 5 μg/ml added at 24h to preformed biofilm, 16 h incubation; decrease vs control
Procedure: (§1) To determine the antibiofilm function of the variant HMGB1 (mHMGB1 (C45S)), Applicants expressed and purified human recombinant HMGB1 (rHMGB1) and recombinant variant HMGB1 (mHMGB1 (C45S)) in E. coli. In vitro preformed 24-hour biofilms formed by multiple human pathogens as indicated in Table 1 were incubated with 5 μg/ml rHMGB1 or mHMGB1 (C45S) for 16 hours. Enterococcus faecium biofilms were incubated with 20 μg/ml rHMGB1 or mHMGB1 (C45S) for 16 hours. Biofilms were washed and stained with LIVE/DEAD® stain and analyzed using a confocal laser scanning microscope and COMSTAT analysis. Applicants observed that mHMGB1 (C45S) was effective at disrupting each of the in vitro preformed biofilms as indicated by significant reduction in average thickness and biomass compared to the control (Table 1).
(§2) HMGB1 isoforms (5 μg/ml) were added at 24h to in vitro preformed bacterial biofilms. After 16 h of incubation (40h total), biofilms were washed and stained with LIVE/DEAD® followed by visualization using CLSM. Biofilms were analyzed by Comstat to calculate average thickness^a (AT) and biomass^a (BM).

Acinetobacter baumanii = test: as above; format: cell-based; conditions: 5 μg/ml added at 24h to preformed biofilm, 16 h incubation; decrease vs control
Procedure: as §1, §2

[1] = tested on: Aggregatibacter actinomycetemcomitans; test: as above; format: cell-based; conditions: 5 μg/ml added at 24h to preformed biofilm, 16 h incubation; decrease vs control
Procedure: as §1, §2

Burkholderia cenocepacia [2] = test: as above; format: cell-based; conditions: 5 μg/ml added at 24h to preformed biofilm, 16 h incubation; decrease vs control
Procedure: as §1, §2

Enterobacter spp. = test: as above; format: cell-based; conditions: 5 μg/ml added at 24h to preformed biofilm, 16 h incubation; decrease vs control
Procedure: as §1, §2

Enterococcus faecium = test: as above; format: cell-based; conditions: 20 μg/ml added at 24h to preformed biofilm, 16 h incubation; decrease vs control
Procedure: as §1, §2

Klebsiella pneumoniae = test: as above; format: cell-based; conditions: 5 μg/ml added at 24h to preformed biofilm, 16 h incubation; decrease vs control
Procedure: as §1, §2

[3] = tested on: Nontypeable Haemophilus influenzae; test: as above; format: cell-based; conditions: 5 μg/ml added at 24h to preformed biofilm, 16 h incubation; decrease vs control
Procedure: as §1, §2

Pseudomonas aeruginosa = test: as above; format: cell-based; conditions: 5 μg/ml added at 24h to preformed biofilm, 16 h incubation; decrease vs control
Procedure: as §1, §2

Uropathogenic E. coli = test: as above; format: cell-based; conditions: 5 μg/ml added at 24h to preformed biofilm, 16 h incubation; decrease vs control
Procedure: as §1, §2

[4] = tested on: NTHI strain 86-028NP biofilms; test: Chinchilla model of experimental otitis media, clearance of preformed NTHI biofilms; format: in vivo; conditions: 4-day old NTHI biofilm, two doses (day 4 and 5; 5 μg each) into middle ear, scored day 6, vs diluent
Procedure: Diluent, 5 μg rHMGB1, or 5 mHMGB1 (C45S) were delivered directly to the middle ears of chinchillas at 4 and 5 days post infection with NTHI. Animals were sacrificed 24 h later and their middle ears were imaged (FIG. 1A) and blindly scored (FIG. 1B) based on the criteria described in the bottom of FIG. 1A. Bars represent SEM. ***P<0.001.
Diluent or 5 μg rHMGB1 or mHMGB1 (C45 S) were delivered directly to middle ears of chinchillas at 4 and 5 days post infection with NTHI. Animals were sacrificed 24 h later, and their middle ears were imaged (FIG. 6A) and blindly scored (FIG. 6B) based on the criteria described in the bottom of (FIG. 6A). Bars represent SEM. ***P<0.001.
To determine the antibiofilm function of mHMGB1 (C45S) in vivo, Applicants employed two distinct animal models. In the first model Applicants tested the ability of rHMGB1 and mHMGB1 (C45S) to clear preformed NTHI biofilms in Applicants' well-established chinchilla model of experimental OM (Novotny et al. 2011; 2013b; Novotny et al. 2016). Applicants first established NTHI strain 86-028NP biofilms in the chinchilla middle ear for 4 days. […] On day 6 the animals were sacrificed and the middle ears were blindly scored for the presence of any remaining biofilm. […] After 4h, mice were sacrificed and total neutrophils were quantified in peritoneal lavage.

Burkholderia cenocepacia [5] = format: in vivo, C57BL/6 mice; conditions: for bacterial burden (CFUs) in BAL: 10^7 CFU intratracheally, 5 μg added simultaneously, after 18 hours, vs control
Procedure: C57BL/6 mice were infected with 10^7 CFU i.t., and simultaneously received rHMGB1 or mHMGB1 (C45S). After 18 h, (FIG. 2A) B. cenocepacia CFUs were quantified in BAL, (FIG. 2B) total host cells infiltrating into the lung were enumerated in BAL, and (FIG. 2C) BAL cells were stained with anti CD45, CD11b and Ly-6G to measure neutrophil migration. Bars represent standard deviation. *P<0.05; **P<0.005. (FIG. 2D) Lungs were collected 72 hpi. Tissue was fixed and embedded in paraffin, sectioned and stained with H&E. All panels show a magnification of 10×.
C57BL/6 mice were infected with 10^7 CFU i.t., and simultaneously received […] rHMGB1 or mHMGB1 (C45 S). (FIG. 7A) Aggregates of B. cenocepacia were visible by fluorescence microscopy in sections probed with an α-B. cenocepacia antibody. After 18 h, (FIG. 7B) CFUs were quantified in BAL, and (FIG. 7C) BAL cells were stained with α-CD45, CD11b, and Ly-6G to measure neutrophil migration. Bars represent SD. *P<0.05.
To determine the antibiofilm function of mHMGB1 (C45S) in vivo, Applicants employed two distinct animal models. In the first model Applicants tested the ability of rHMGB1 and mHMGB1 (C45S) to clear preformed NTHI biofilms in Applicants' well-established chinchilla model of experimental OM (Novotny et al. 2011; 2013b; Novotny et al. 2016). Applicants first established NTHI strain 86-028NP biofilms in the chinchilla middle ear for 4 days. Applicants then treated the 4-day old NTHI biofilm with two doses (day 4 and 5; 5 μg each) of rHMGB1, mHMGB1 (C45S) or diluent. On day 6 the animals were sacrificed and the middle ears were blindly scored for the presence of any remaining biofilm. […] In the second model, Applicants tested the ability of rHMGB1 and mHMGB1 (C45S) to inhibit biofilm development of Burkholderia cenocepacia in the murine airways. C57BL/6 mice were infected with 10^7 CFU of B. cenocepacia intratracheally and 5 μg of rHMGB1 or mHMGB1 (C45S) was added simultaneously. After 18 hours, the animals were sacrificed and bronchoalveolar lavage (BAL) and lungs were collected. […] Lastly, Applicants validated the inflammatory activity of rHMGB1 and mHMGB1 (C45S) in an in vivo chemotaxis model to determine the ability to recruit neutrophils (Orlova et al. 2007; Penzo et al. 2010). C57BL/6 mice were injected with 5 μg of either mHMGB1 (C45S) or rHMGB1 or 1 ml of 4% thioglycollate. After 4h, mice were sacrificed and total neutrophils were quantified in peritoneal lavage.

branched DNA structures = test: Affinity to branched DNA structures; format: binding; conditions: effect of the C45S mutation
[6] = Consequences of bacterial dispersal from biofilm in vivo (second site infections, sepsis)
Excerpt: Also, this dispersal effect could result in sepsis.

[7] = tested on: Uropathogenic E. coli UTI89; test: HMGB1 added at seeding and at 24h to UPEC biofilm; format: cell-based; conditions: 0.1, 1 and 5 μg/ml added at seeding and at 24h
Procedure: Applicants added HMGB1 at 0.1, 1 and 5 μg/ml at seeding and at 24h to a biofilm formed by Uropathogenic E. coli UTI89. […] Based on this information, Applicants hereby disclose a method for inhibiting, competing or titrating the binding of a deoxyribonucleic acid B II (DNABII) polypeptide to a microbial DNA in a biofilm, comprising, or alternatively consisting essentially of, or yet further consisting of, contacting the microbial DNA in the biofilm with an effective amount of an isolated or recombinant polypeptide comprising a modified high mobility group-box 1 domain (mHMGB1) comprising a C45S substitution thereby inhibiting, competing or titrating the binding of the DNABII polypeptide to the microbial DNA. The contacting can be accomplished in vitro or in vivo. Non-limiting examples of organisms that promote our cause the biofilm include one or more of Burkholderia cenocepacia, Enterobacter spp., Staphylococcus aureus, Klebsiella pneumoniae, Acinetobacter baumanii, Pseudomonas aeruginosa, Enterococcus faecium, Uropathogenic Escherichia coli (UPEC), Non-typeable Haemophilus influenzae (NTHI), and/or Aggregatibacter actinomycetemcomitans.

Molecule | average thickness (AT) (Staphylococcus aureus) | biomass (BM) (Staphylococcus aureus) | average thickness (AT) (Acinetobacter baumanii) | biomass (BM) (Acinetobacter baumanii) | average thickness (AT) [1] | biomass (BM) [1] | average thickness (AT) (Burkholderia cenocepacia [2]) | biomass (BM) (Burkholderia cenocepacia [2]) | average thickness (AT) (Enterobacter spp.) | biomass (BM) (Enterobacter spp.) | average thickness (AT) (Enterococcus faecium) | biomass (BM) (Enterococcus faecium) | average thickness (AT) (Klebsiella pneumoniae) | biomass (BM) (Klebsiella pneumoniae) | average thickness (AT) [3] | biomass (BM) [3] | average thickness (AT) (Pseudomonas aeruginosa) | biomass (BM) (Pseudomonas aeruginosa) | average thickness (AT) (Uropathogenic E. coli) | biomass (BM) (Uropathogenic E. coli) | also measured
rHMGB1: recombinant HMGB1 derived from a human, expressed and purified in E. coli, used as comparator to mHMGB1 (C45S) [reference compound] | ↔ | ↔ | ↓↓↓ (>51% decrease) | ↓↓ (31-50% decrease) | ↓ (20-30% decrease) | ↓ (20-30% decrease) | ↓↓↓ (>51% decrease) | ↓↓↓ (>51% decrease) | ↓↓↓ (>51% decrease) | ↓↓↓ (>51% decrease) | ↓↓↓ (>51% decrease) | ↓↓↓ (>51% decrease) | ↓↓↓ (>51% decrease) | ↓↓↓ (>51% decrease) | ↓ (20-30% decrease) | ↓ (20-30% decrease) | ↓↓↓ (>51% decrease) | ↓↓↓ (>51% decrease) | ↓↓ (31-50% decrease) | ↓↓ (31-50% decrease) | clearing of biofilm from the middle ear (blindly scored) [4]: very effective at clearing the biofilms from the middle ear; bacterial burden (CFUs) in BAL (Burkholderia cenocepacia [5]): effective at reducing the bacterial burden in BAL; lung damage (H&E) (Burkholderia cenocepacia [5]; mouse, in vivo): severe inflammation and increased neutrophil response
mHMGB1 (C45S): variant human HMGB1 with the cysteine at position 45 substituted with serine, expressed in E. coli (MGKGDPKKPRGKMSSYAFFVQTCREEHKKKHPDASVNFSEFSKKSSERWK) | ↓↓↓ (>51% decrease) | ↓↓↓ (>51% decrease) | ↓↓↓ (>51% decrease) | ↓↓↓ (>51% decrease) | ↓ (20-30% decrease) | ↓ (20-30% decrease) | ↓↓↓ (>51% decrease) | ↓↓↓ (>51% decrease) | ↓↓↓ (>51% decrease) | ↓↓↓ (>51% decrease) | ↓↓ (31-50% decrease) | ↓↓ (31-50% decrease) | ↓↓↓ (>51% decrease) | ↓↓↓ (>51% decrease) | ↓ (20-30% decrease) | ↓ (20-30% decrease) | ↓↓↓ (>51% decrease) | ↓↓↓ (>51% decrease) | ↓↓↓ (>51% decrease) | ↓↓↓ (>51% decrease) | clearing of biofilm from the middle ear (blindly scored) [4]: very effective at clearing the biofilms from the middle ear; B. cenocepacia CFUs in BAL compared to rHMGB1 (Burkholderia cenocepacia [5]; 10^7 CFU i.t., simultaneous treatment, after 18 h, compared to rHMGB1): significant decreases; bacterial burden (CFUs) in BAL (Burkholderia cenocepacia [5]): effective at reducing the bacterial burden in BAL; inflammatory cell infiltration compared to rHMGB1 (Burkholderia cenocepacia [5]; mouse, in vivo): significant decreases; lung damage (H&E) (Burkholderia cenocepacia [5]; mouse, in vivo): more resembled uninfected mouse lungs; affinity to branched DNA structures (branched DNA structures): increases the affinity of the molecule to branched DNA structures; second site infections or sepsis after dispersal of bacteria from biofilm [6]: None of these consequences has been observed
HMGB1: HMGB1 added to UPEC UTI89 biofilm; probably the recombinant human HMGB1 (rHMGB1) (protein, UniProt P09429 1-215, looked up) High mobility group protein B1: MGKGDPKKPRGKMSSYAFFVQTCREEHKKKHPDASVNFSEFSKKCSERWKTMSAKEKGKFEDMAKADKARYEREMKTYIPPKGETKKKFKDPNAPKRPPSAFFLFCSEYRPKIKGEHPGLSIGDVAKKLGEMWNNTAADDKQPYEKKAAKLKEKYEKDIAAYRAKGKPDAAKKGVVKAEKSKKKKEEEEDEEDEEDEEEEEDEEDEDEEEDDDDE |  |  |  |  |  |  |  |  |  |  |  |  |  |  |  |  |  |  |  |  | disruption of UPEC biofilms [7]: dose-dependent disruption of UPEC biofilms
